From PMC12430364, “Characterization of Human Recombinant β1,4-GalNAc-Transferase B4GALNT1 and Inhibition by Selected Compounds” (Molecules, 2025)

Assays:
Format in all cases: biochemical
[1] = target: T1, β1,4-N-acetylgalactosaminyltransferase 1 (B4GALNT1, GM2 synthase) (Homo sapiens, UniProt Q00973); assay: radiolabeled UDP-[3H]GalNAc transfer to GM3, purified enzyme; […] inhibition at […] and IC50
T1 construct: soluble His8-tagged, amino acids 1–25 deleted
T1 sequence (Q00973 26-533): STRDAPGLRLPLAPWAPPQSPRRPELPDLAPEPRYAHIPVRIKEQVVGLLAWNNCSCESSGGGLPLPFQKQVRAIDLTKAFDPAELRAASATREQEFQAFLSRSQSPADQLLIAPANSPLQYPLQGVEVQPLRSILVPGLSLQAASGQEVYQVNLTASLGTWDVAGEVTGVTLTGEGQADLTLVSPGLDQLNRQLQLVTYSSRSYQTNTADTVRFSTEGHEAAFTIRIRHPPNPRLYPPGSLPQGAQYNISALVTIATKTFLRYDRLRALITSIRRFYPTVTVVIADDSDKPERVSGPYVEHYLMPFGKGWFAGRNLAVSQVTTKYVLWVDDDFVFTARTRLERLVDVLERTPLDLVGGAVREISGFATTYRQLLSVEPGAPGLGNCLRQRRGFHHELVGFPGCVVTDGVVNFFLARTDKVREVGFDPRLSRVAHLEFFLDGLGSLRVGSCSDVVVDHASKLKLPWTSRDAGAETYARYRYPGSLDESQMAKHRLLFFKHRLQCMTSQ

[2] = target: T1, β1,4-N-acetylgalactosaminyltransferase 1 (B4GALNT1, GM2 synthase); assay: % inhibition at […], radiolabeled GalNAc transfer assay, purified enzyme
[3] = target: T1, β1,4-N-acetylgalactosaminyltransferase 1 (B4GALNT1, GM2 synthase); assay: radiolabeled GalNAc transfer assay, purified enzyme, apparent KM

CCCCCCCCCCC[n+]1ccn(CCCCCCn2cc[n+](CCCCCCCCCCC)c2)c1 [QT163]
IC50 [1]: 200 µM

CCCC(=O)N[C@@H]1[C@@H](O)[C@H](O)[C@@H](CO)O[C@H]1Sc1ccc2ccccc2c1 [compound 612, 2-naphthyl 2-butanamido-2-deoxy-1-thio-β-D-glucopyranoside]
inhibition at 1000 µM [2]: 44%

GM3
Km [3]: 500 µM
